Assay results: patent US20260137790A1, “MIXED VASOPRESSIN RECEPTOR AGONIST-ANTAGONIST FOR MODULATING MEAN ARTERIAL PRESSURE” (FERRING B.V., priority 2022, published 2026)

Tests used:
rV2 = biological target: T1, rV2 (Rattus norvegicus, UniProt Q00788); experiment: Luciferase reporter gene assay, rV2; type: cell-based; settings: rV2, relative to dDAVP
T1 construct: host or cells: HEK-293 cells, transient
Protocol: (§1) Cell Maintenance. HEK-flp-in cells were maintained in Dulbecco's modified Eagle's medium (DMEM) containing 10% (v/v) heat-inactivated fetal bovine serum (FBS), 4 mM GlutaMAX™—I, and 25 μg/mL hygromycin B at 37° C. under 5% CO2 in a humidified atmosphere. […] On the day prior to the assay, cells were removed from culture flasks using trypsin EDTA, harvested in the medium used for cell culture, and seeded into 384-well (for V1a) or 96-well (for other receptors) poly-d-Iysine-treated plates at 7.5×10^4 cells in 20 μL/well for rV1a, 2.5×10^4 cells in 20 μL/well for hV1a, and 4-5×10^4 cells in 100 μL/well for all other receptors.
(§2) Functional Cell-Based Assays. To detect activity generated by binding of the test compounds to endogenous rV1a receptors or the stably expressed hV1a receptors, Fluorometric Imaging Plate Reader (FLlPR) calcium assays were performed. Briefly, real-time fluorescence of an intracellular calcium-sensitive dye was measured immediately upon addition of the test compound at various concentrations. […] Reporter gene assays were used to monitor agonist-induced activity at the human and rat V1b, V2, and OT receptors. […] Expression of the luciferase gene was determined after 5-h incubation with various concentrations of test compound. […] For V1a receptor response, area under the curve of the real-time calcium traces, expressed as relative fluorescence units, was determined. […]

adult male Wistar rats = experiment: Skin blood flow and blood lactate in anesthetized rats (IV infusion); type: in vivo, rat
Protocol: This study was performed over multiple experiments using a total of 48 adult male Wistar rats. […] Compounds were infused via an IV catheter at six sequentially increasing doses.
On the day of experimentation animals were anesthetized and instrumented. A tracheostomy was performed to allow assisted respiration and three catheters were placed. Laser Doppler probes were positioned on a shaved portion of the animal's lower abdominal skin for blood-flow measurements. Ventilation was initiated, and baseline readings for the primary parameter of skin blood flow (SBF) were recorded. Readings for the secondary parameters were also recorded: (1) blood lactate concentration, (2) mean arterial pressure (MAP), and (3) blood pH. Data collection was performed continuously for SBF and MAP using NOTOCORD-hem™ (Instem), and blood samples were taken at each compound dose and immediately analyzed using an i-STAT® meter.
After the final dose administration, animals were euthanized and a final SBF measurement was recorded to detect any signal from the flow probe after the animal's heart stopped beating to control for a signal not attributed to blood flow. Animal body temperature, pulse, and ventilation adequacy were monitored throughout the procedure.

rOTR = biological target: T2, rOTR (Rattus norvegicus, UniProt P70536); settings: relative to carbetocin
T2 sequence (P70536 1-388): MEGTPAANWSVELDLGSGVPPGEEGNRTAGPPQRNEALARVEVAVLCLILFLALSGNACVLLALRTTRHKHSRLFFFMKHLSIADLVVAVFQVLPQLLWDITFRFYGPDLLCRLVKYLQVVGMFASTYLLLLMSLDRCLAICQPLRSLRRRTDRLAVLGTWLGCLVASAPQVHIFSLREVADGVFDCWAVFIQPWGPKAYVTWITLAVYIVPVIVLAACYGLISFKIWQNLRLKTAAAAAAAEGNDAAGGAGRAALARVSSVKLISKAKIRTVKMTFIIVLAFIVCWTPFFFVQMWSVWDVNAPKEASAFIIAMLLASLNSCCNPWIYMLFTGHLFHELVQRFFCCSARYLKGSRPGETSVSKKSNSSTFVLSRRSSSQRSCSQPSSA
Protocol: as §1, §2

T1 sequence (Q00788 whole entry): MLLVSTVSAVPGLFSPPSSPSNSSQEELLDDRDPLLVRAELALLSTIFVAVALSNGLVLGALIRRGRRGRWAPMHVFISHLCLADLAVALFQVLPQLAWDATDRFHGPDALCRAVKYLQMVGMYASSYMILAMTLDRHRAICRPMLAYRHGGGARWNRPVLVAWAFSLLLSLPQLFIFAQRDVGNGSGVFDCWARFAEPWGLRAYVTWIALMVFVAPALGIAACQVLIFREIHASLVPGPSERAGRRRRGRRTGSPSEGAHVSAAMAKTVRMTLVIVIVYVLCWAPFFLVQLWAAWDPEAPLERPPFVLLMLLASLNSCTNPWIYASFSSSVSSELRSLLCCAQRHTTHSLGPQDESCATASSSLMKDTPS

`NC(=O)CC[C@@H]1NC(=O)[C@H](Cc2ccccc2)NC(=O)[C@H](Cc2ccc(O)cc2)NC(=O)[C@@H](N)CSSC[C@@H](C(=O)N2CCC[C@H]2C(=O)N[C@@H](CCCN=C(N)N)C(=O)NCC(N)=O)NC(=O)[C@H](CC(N)=O)NC1=O` [AVP, arginine vasopressin] was tested, and the “% MPE Mean” value (rV2) was 98 % MPE, the “ED50, skin blood flow” value (adult male Wistar rats; anesthetized rats, IV infusion) was 12.6 pmol/kg/min and the “mean blood lactate concentration” value (adult male Wistar rats; rats, IV 3 pmoL/kg/min) was 1.34 mM. The “mean blood lactate concentration” value (adult male Wistar rats; rats, IV 600 pmoL/kg/min) was 4.27 mM, the “blood lactate at highest doses tested” value (adult male Wistar rats; rats, IV, compared with vehicle) was “significantly elevated” and the “decrease of skin blood flow from baseline (approximate maximal)” value (adult male Wistar rats; rats, intravenous administration) was “about 90%”. For the same compound, the “% MPE Mean” value (rOTR) was 82 % MPE.
